Data reported in paper PMC11513893, “Discovery of Oral Degraders of the ROS1 Fusion Protein with Potent Activity against Secondary Resistance Mutations” (Journal of Medicinal Chemistry, 2024).

What was measured:
Ba/F3 ROS1-G2032R = assay: Antiproliferation assay; assay type: cell-based, mouse; settings: Mus musculus, BaF3; Ba/F3 cells, cell growth inhibition, 72 h
ROS1 [1] = assay: ROS1 degradation in Ba/F3 cells (WES immunoblotting); assay type: cell-based; settings: maximal degradation of ROS1 in Ba/F3 cells
Method in brief: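 ROS1 and phospho-ROS1 (Tyr2274/2334) in Ba/F3 lysates quantified by capillary immunoassay (WES) with chemiluminescent detection, duplicate experiments. Levels expressed as AUC of the chemiluminescence peak.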

[2] = Metabolic stability in human microsomes; assay type: in vitro ADME; settings: human, pooled human microsomes, pH 7.4, 250 nM compound, NADPH, 37 °C
Experimental: Pooled human and rat microsomes were prepared and stored at −80 °C prior to use. A master-mix containing microsome, phosphate buffer, and test compound (9 series) solution was made as follows: (1) 3 μL of microsome (20 mg/mL) was diluted with mixed 30 μL of potassium phosphate buffer (pH 7.4; 10×) and 246 μL of water; (2) 3 μL of 25 μM drug solution was added to the microsome; (3) the master solution was prewarmed at 37 °C for 5 min. NADPH solution A (15 μL) and NADPH solution B (3 μL) from Promega were added to the above-mentioned master solution to initiate the reaction. The final concentration of 9 compounds in the reaction system was 250 nM. An aliquot of 20 μL was pipetted from the reaction solution and stopped by the addition of 180 μL of cold MeCN containing 25 ng of Tamoxifen-(N,N-dimethyl-13C2)-15N as an internal standard at the designated time points (0, 5, 15, 30, 45, and 60 min). The incubation solution was vortexed-mixed (800 rpm/10 min) and centrifuged at 3500 rpm for 10 min to precipitate proteins. The supernatant was collected and used for the LC/MS/MS analysis. The natural log of the remaining percentage of the test compound was plotted against time and the gradient of the line was determined.

[3] = tested on: Ba/F3 CD74-ROS1 WT xenograft tumors; assay: Mouse efficacy study, Ba/F3 CD74-ROS1 xenograft; assay type: in vivo; settings: NOD/SCID mice
Experimental: All the procedures related to animal handling, care, and treatment in this study were performed according to guidelines approved by the Institutional Animal Care and Use Committee (IACUC) of Xavier University of Louisiana following the guidance of the AAALAC. Ba/F3-ROS1 and Ba/F3-ROS1-G2032R cells were maintained in RPMI 1640 medium supplemented with 10% fetal bovine serum. The cells growing in an exponential growth phase were harvested and counted for tumor inoculation. Female NOD/SCID mice 6–8 weeks of age were allowed to adapt to laboratory conditions for 10 days prior to dosing and were allowed food and water ad libitum. Each mouse was inoculated subcutaneously in the right flank with Ba/F3 CD74-ROS1 or Ba/F3 SL34A2-ROS1 G2032R cells (1 × 10^6) in 0.2 mL of PBS mixed with Matrigel (50:50) for tumor development.

ROS1 [4] = biological target: ROS1 (Homo sapiens, UniProt P08922); assay: Kinase assay; assay type: biochemical; settings: average of duplicate measurements
ERBB4/HER4 = ERBB4/HER4 (Homo sapiens, UniProt Q15303); assay: Kinase assay; assay type: biochemical; settings: average of duplicate measurements
CLK1 = CLK1 (Homo sapiens, UniProt P49759); assay: Kinase assay; assay type: biochemical; settings: average of duplicate measurements
CAMK2D = CAMK2D (Homo sapiens, UniProt Q13557); assay: Kinase assay; assay type: biochemical; settings: average of duplicate measurements
ERBB2 = ERBB2 (Homo sapiens, UniProt P04626); assay: Kinase assay; assay type: biochemical; settings: average of duplicate measurements
INSRR = INSRR (Homo sapiens, UniProt P14616); assay: Kinase assay; assay type: biochemical; settings: average of duplicate measurements
CAMK2G = CAMK2G (Homo sapiens, UniProt Q13555); assay: Kinase assay; assay type: biochemical; settings: average of duplicate measurements
[5] = tested on: Ba/F3 ROS1 L2086F, S1986F/L2086F, S1986F/G2032R/L2086F; assay: Antiproliferation assay, resistant mutations involving L2086F; assay type: cell-based; settings: Mus musculus, BaF3; Ba/F3 cells, summary of Table 6; read-out: potency against resistant mutations involving L2086F, S1986F/L2086F, S1986F/G2032R/L2086F
Experimental: To assess the 72 h effect of drug treatment on cell proliferation, 2000 to 3000 cells were plated in replicates of three in 96-well plates. The plates were placed in an incubator at 37 °C, 5% CO2 for 72 h. Following drug treatments, the cells were incubated with the Alamar Blue Assay reagent (BioRad), 5 μL each well for 4 h at 37 °C and 5% CO2. Luminescence was measured on a multiplate reader and analyzed. […] IC50 values were determined using a nonlinear regression model with a sigmoidal dose response in GraphPad. The data were collected based on triplicate experiments, and presented as mean ± SD.

Sequence of INSRR (P14616 27-1297, species assumed): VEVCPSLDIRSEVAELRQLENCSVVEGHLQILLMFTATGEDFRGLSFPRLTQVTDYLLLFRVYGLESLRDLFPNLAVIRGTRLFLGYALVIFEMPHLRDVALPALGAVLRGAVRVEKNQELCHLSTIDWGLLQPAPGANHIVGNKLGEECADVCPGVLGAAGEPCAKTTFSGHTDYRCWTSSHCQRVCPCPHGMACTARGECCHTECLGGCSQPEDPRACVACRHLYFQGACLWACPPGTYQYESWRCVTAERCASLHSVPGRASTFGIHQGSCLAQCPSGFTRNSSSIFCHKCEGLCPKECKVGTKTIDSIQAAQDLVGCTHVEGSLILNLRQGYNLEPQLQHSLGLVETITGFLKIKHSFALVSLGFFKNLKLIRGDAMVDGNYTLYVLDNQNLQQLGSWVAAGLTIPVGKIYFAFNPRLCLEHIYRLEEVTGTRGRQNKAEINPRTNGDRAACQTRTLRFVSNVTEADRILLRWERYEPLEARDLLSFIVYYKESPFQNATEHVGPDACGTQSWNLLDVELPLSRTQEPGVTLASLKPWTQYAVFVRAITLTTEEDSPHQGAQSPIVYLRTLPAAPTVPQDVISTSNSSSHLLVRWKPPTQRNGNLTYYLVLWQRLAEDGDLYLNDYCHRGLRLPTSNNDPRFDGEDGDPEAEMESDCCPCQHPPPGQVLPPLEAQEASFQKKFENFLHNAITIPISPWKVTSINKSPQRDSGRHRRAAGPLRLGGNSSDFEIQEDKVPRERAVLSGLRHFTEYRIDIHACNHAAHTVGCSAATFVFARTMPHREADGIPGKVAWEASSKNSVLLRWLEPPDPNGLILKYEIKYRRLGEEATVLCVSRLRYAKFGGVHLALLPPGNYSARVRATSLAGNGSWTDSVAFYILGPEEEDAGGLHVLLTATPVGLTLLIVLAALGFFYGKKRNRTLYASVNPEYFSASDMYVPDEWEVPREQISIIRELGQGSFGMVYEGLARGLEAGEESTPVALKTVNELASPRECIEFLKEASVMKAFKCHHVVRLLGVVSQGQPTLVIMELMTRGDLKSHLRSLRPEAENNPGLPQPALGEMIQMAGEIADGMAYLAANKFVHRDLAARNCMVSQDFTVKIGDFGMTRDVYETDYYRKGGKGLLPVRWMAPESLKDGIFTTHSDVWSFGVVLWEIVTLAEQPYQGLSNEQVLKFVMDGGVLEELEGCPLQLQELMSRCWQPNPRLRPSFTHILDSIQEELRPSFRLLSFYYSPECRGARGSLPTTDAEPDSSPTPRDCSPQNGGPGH
Sequence of CAMK2G (Q13555 whole entry, species assumed): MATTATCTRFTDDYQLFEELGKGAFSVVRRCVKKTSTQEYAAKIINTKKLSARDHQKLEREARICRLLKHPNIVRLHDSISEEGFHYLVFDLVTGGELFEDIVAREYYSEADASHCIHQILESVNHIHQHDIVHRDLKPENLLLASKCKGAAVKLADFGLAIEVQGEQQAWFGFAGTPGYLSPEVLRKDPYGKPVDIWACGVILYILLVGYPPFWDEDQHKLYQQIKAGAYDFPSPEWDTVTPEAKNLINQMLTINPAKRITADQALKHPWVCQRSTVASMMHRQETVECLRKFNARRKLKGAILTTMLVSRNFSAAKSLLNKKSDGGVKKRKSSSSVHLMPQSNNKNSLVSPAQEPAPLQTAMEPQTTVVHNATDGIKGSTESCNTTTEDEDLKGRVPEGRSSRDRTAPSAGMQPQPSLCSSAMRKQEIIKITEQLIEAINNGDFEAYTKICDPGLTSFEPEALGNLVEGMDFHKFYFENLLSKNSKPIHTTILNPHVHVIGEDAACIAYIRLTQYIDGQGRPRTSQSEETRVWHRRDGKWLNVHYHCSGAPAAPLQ
Sequence of ERBB4/HER4 (Q15303 26-1308): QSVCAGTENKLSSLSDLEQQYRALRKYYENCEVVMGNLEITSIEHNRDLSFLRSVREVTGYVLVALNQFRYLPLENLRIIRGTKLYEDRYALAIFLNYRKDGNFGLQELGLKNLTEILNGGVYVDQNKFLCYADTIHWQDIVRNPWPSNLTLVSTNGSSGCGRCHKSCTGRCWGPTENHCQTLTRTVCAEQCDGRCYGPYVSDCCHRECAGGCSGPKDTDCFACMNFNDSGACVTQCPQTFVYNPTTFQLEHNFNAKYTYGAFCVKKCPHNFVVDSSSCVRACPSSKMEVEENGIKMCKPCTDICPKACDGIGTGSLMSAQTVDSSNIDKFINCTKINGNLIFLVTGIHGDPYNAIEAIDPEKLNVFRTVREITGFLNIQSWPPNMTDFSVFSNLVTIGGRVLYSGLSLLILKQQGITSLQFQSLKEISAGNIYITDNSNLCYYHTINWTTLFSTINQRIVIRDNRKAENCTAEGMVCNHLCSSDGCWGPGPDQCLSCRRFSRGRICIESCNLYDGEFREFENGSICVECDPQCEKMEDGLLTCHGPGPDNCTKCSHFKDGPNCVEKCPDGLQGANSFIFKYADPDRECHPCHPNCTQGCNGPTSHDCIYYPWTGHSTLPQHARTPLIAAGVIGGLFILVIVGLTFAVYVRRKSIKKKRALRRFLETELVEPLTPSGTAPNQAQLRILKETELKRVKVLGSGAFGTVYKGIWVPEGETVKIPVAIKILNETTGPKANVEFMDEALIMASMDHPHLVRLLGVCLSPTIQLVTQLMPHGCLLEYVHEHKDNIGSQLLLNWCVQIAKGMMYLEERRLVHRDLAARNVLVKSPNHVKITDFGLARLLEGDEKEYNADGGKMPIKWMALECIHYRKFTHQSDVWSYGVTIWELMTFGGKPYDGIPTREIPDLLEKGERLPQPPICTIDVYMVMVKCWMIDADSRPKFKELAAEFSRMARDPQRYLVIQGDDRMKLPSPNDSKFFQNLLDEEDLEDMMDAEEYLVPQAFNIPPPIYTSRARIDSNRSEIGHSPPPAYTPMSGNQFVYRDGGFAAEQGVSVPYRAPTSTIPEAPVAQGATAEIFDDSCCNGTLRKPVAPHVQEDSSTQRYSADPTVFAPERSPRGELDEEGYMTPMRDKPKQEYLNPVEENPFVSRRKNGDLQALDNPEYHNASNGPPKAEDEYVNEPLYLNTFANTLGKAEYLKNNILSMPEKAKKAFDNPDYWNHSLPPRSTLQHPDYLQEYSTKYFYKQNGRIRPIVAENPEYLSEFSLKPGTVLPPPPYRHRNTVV
Sequence of ERBB2 (P04626 23-1255, species assumed): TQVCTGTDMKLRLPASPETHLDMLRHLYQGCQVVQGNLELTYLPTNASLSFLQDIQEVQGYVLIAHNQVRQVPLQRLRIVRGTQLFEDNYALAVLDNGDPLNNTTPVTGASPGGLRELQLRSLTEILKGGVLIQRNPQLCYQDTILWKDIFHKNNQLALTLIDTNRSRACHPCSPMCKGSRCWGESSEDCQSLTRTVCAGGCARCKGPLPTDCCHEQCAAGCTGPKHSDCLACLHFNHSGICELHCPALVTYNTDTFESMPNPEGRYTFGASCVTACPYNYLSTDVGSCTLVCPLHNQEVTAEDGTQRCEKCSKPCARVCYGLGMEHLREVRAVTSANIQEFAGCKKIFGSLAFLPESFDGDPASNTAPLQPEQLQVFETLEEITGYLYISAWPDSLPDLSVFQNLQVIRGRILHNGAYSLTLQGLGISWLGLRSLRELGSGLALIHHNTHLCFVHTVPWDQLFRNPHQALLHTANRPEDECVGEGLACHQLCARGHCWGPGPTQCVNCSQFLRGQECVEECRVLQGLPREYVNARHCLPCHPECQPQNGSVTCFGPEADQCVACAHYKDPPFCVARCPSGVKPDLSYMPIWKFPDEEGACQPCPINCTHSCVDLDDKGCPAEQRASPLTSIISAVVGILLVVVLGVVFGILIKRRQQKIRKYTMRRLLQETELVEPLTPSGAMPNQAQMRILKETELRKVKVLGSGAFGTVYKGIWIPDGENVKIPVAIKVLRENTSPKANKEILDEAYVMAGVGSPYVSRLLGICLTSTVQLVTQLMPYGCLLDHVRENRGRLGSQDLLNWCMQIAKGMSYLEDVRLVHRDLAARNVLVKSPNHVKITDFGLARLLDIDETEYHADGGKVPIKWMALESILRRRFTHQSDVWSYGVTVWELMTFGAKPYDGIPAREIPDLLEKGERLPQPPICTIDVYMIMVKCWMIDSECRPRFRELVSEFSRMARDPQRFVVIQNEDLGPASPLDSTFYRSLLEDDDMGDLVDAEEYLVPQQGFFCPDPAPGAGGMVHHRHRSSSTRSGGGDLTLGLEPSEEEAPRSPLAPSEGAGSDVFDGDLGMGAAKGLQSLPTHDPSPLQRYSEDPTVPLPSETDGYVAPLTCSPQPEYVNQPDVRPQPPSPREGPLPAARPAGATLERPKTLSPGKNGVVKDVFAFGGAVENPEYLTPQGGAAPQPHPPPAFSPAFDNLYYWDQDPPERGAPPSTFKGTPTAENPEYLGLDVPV
Sequence of CAMK2D (Q13557 whole entry, species assumed): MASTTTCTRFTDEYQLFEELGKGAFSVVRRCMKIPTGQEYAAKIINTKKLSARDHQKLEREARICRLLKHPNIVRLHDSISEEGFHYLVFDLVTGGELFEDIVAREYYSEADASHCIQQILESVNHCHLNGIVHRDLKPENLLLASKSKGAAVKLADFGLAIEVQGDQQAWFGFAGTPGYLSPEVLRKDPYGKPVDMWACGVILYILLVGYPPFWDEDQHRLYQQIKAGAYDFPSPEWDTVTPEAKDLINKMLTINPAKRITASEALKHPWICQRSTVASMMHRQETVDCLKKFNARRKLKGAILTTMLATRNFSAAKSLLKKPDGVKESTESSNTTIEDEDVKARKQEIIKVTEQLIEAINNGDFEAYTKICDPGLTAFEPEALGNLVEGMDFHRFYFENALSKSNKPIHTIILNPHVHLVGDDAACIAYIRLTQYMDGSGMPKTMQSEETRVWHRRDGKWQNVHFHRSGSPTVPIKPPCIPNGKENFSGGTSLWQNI

With `COc1cc(N2CCC(N3CCN(CC4CCN(c5ccc6c(c5)CN(C5CCC(=O)NC5=O)C6=O)CC4)CC3)CC2)ccc1Nc1ncc(Cl)c(Nc2ccccc2P(C)(C)=O)n1` (centres unmarked) [9o, 3-(5-(4-((4-(1-(4-((5-Chloro-4-((2-(dimethylphosphoryl)phenyl)amino)pyrimidin-2-yl)amino)-3-methoxyphenyl)piperidin-4-yl)piperazin-1-yl)methyl)piperidin-1-yl)-1-oxoisoindolin-2-yl)piperidine-2,6-dione] the IC50 (Ba/F3 ROS1-G2032R) was 6.3 ± 2.1 nM, the “Dmax (%) (ROS1)” value (ROS1 [1]) was 99% and the microsomal CLint at 1 h, 0.25 µM [2] was 71.1 µL/min/mg. For the same compound, the half-life at 1 h, 0.25 µM ([2]; read-out: metabolic stability in human microsomes T1/2) was 48.8 min, the “TGI (tumor growth inhibition)” value ([3]; 10 mg/kg PO qd) was 62% and the “TGI (tumor growth inhibition)” value ([3]; 30 mg/kg PO qd) was 164%. For the same compound, the IC50 (ROS1 [4]) was 0.8 nM, the IC50 (ERBB4/HER4) was 27 nM and the IC50 (CLK1) was 35 nM. It also gave an IC50 (CAMK2D) of 39 nM, an IC50 (ERBB2) of 42 nM and an IC50 (INSRR) of 45 nM. For the same compound, the IC50 (CAMK2G) was 48 nM and the IC50 [5] was 1.9 to 66 nM.
